The record followed here is publication PMC9921896 (Molecules, 2023).

The structures appear in SMILES notation.

This series in a line: Metabolite identification (MetID) in hepatocytes by LC-MS/MS. In kind it is in vitro ADME, human. Particulars: 80 min incubation, HR LC-MS/MS, metabolite M1, parent ion m/z 551 (375 + 176). The text has this: However, on the contrary, these metabolites can also be formed with higher or equivalent toxicity when compared to the parent ligand. Therefore, to gain such an understanding of metabolite toxicity, 223-2 TbB ligand was shortlisted for metabolite identification (MetID) studies as it was the least prominent CYP inhibitor among the three TbB ligands studied for CYP inhibition, as discussed in earlier sections. The metabolites’ detection and identification were accomplished by utilizing the high-resolution LC-MS/MS (HR LC-MS/MS) technique and the obtained fragmentation pattern was subsequently analyzed to propose putative structures as discussed in the following paragraph. MetID studies was initiated first for the parent 223-2 ligand by HR LC-MS/MS as its fragmentation understanding could act as a guide to potentially identify the metabolites formed after incubation with hepatocytes. Since the 223-2 TbB ligand contain N and O atoms, it could be easily protonated and it was sensitive in positive ionization mode. Consequently, it was studied using the positive fragmentation pattern by ESI-MS ^n .
To understand the fragmentation pattern of the parent compound, EPI spectrum was analyzed. […] Next, TbB ligand 223-2 was incubated (80 min) with hepatocytes and a new metabolite (M1) could be detected when compared with the control (0 min). […]

On to `COc1cc(-c2nnn(-c3cc(OC)c(O)c(OC)c3)n2)cc(OC)c1O` [223-2], for which the “metabolite detected after incubation with hepatocytes” value was “formation of glucuronide”.
